Experimental data as given in patent US20090252704A1, “THERAPIES FOR COGNITION AND LEARNING ENHANCEMENT” (priority 2008, published 2009).

Tests used:
scopolamine treated mice = experiment: step through passive avoidance (STPA) in scopolamine treated mice; type: in vivo, Male C57BL/6 mice
Source text: Male C57BL/6 mice weighing 20-25 g (6-8 weeks of age) were maintained in a controlled environment (housed at 5 per cage; at 22-25 C.°; 12/12 light/dark cycle) and allowed to acclimate 2 weeks before initiation of the STPA task. The STPA apparatus consists of a box with two compartments light and dark; each of 20×9.5×16.5 cm^3 (Ugo Basile Rat Passive Avoidance Apparatus, customized for mice with chamber inserts). Mice were transported to the testing facility in covered cages and whilst in training or testing phases were housed at 1 or 2 per cage.
STPA Habituation phase: Mice are placed in the light compartment and latency to enter the dark compartment is recorded. The criteria of success is entrance to the dark compartment within 30 sec twice in three trails or three times in five trials; showing the normal aversion of mice to a highly lit space.
STPA Training phase: In acute drug testing, 2 hrs after habituation is complete; 30 min (t=−30) and 20 min (t=−20) prior to training, scopolamine (or saline) and test drug (or vehicle), respectively, are administered. In the drinking water protocol, at t=−30 prior to training, scopolamine (or saline) is administered. Mice are placed into the light compartment at time zero. Upon entry into the dark compartment, an automatic door closes and 2.0 sec shock (0.5 mA) is delivered through the floor grating. […] The number of trials to reach criterion is recorded for assessment of secondary biomarkers, such as analgesia.
STPA Testing phase: At 24 h and 48 h post training, animals are tested for memory retention without any drug administration. The animals are again placed in the light compartment. Latency to enter the dark side is recorded as a measure of memory consolidation, retention and retrieval.
Scopolamine (1 mg/kg; 1 mg/4 ml) is administered ip. Test compound (1 mg/kg, 1 mg/Kg) administered ip.
Dosing—Behavioral Studies: Drugs and vehicle were administered either i.p. for acute studies (1 mg/kg, or as indicated in the figures, in saline), otherwise in drinking water (20 mg/kg/day).
Drinking water dosing: Rodents drink continuously during the active dark cycle and intermittently during the resting light cycle.

[1] = tested on: animal models of chronic learning and cognition impairment; experiment: animal models of chronic learning and cognition impairment; type: in vivo; conditions: chronic use

Structure (SMILES)	reversal of cognition deficits, comparison (FIG. 4) (scopolamine treated mice; STPA, scopolamine treated mice)	cognition deficit reversal (FIG. 1, FIG. 2 and FIG. 3) (scopolamine treated mice; in drinking water (20 mg/kg/day), STPA, scopolamine 1 mg/kg ip)	effect on learning and cognition [1]	reversal of cognition deficits, comparison (FIG. 4) (scopolamine treated mice; mouse, in vivo)
Cc1ncsc1CCO[N+](=O)[O-].Cl [GT-1061, 4-methyl-5-(2-nitroxyethyl)thiazole HCl]	reversal of cognition deficits	cognition deficit reversal		
O=[N+]([O-])O[C@H]1CO[C@H]2[C@@H]1OC[C@H]2O[N+](=O)[O-] [ISDN, isosorbide dinitrate]	reversal of cognition deficits		enhance learning and cognition	
Cc1ncsc1CCCl [clomethiazole]				reversal of cognition deficits
